Patent US8309760B2, “Process for purification of aryl carboxylic acids” (University of Alabama, priority 2007, dated 2012)
Read-outs that look alike come from different tables or passages of the source.

How the values were obtained:
[1] = cited from earlier work
[2] = format: physicochemical
Description: Examples illustrating the dissolution and aqueous reconstitution of terephthalic acid from ionic liquids follow the same general experimental protocol. However, it should be noted that the ionic liquids chosen are by far non-limiting examples of terephthalic acid dissolution in ionic liquids. To a vial containing 100 mg of an ionic liquid is added 10 mg of terephthalic acid and the mixture is heated to 75° C. to reduce the viscosity of the resulting liquid. The solution is stirred on a hot plate in an oil bath for 24 hours, whereupon the solutions are visually checked for dissolution. Aqueous reconstitution of the terephthalic acid is achieved by the addition of 500 mL deionized water (polished to 18.1-18.3 MΩ cm). Crystalline terephthalic acid separates from the ionic liquid as a flock, washed with copious amounts of deionized water and vacuum filtered, then dried in ambient conditions and ground with a spatula to give the desired crystalline terephthalic acid.

Row | solubility in various ionic liquids [2] | SMILES | solubility in water ([1]; no temperature given) | solubility of terephthalic acid in water ([1]; temperature of about 300° C.) | solubility in water ([1]; temperatures below about 200° C.)
1 |  | O=Cc1ccc(C(=O)O)cc1 [4-Carboxybenzaldehyde, 4-carboxybenzaldehyde] | soluble |  | 
2 | soluble | O=C(O)c1ccc(C(=O)O)cc1 [terephthalic acid] |  | about 40% | insoluble
